# Results from the supplement of paper PMC10307832.
# Tests used:
# Assay in all cases: relative viability (nuclei count vs DMSO), 5 days (fraction); higher = more cells survive
# NCI-H727 = test system: NCI-H727
# Procedure, shortened: (§1)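 The day after seeding in 1536-well plates, lung cancer cell lines were treated by pin tool with a single drug, or with a fixed anchor-drug dose together with five library-drug doses (not always all listed) in √10 steps. After 5 days, a combined fix-and-stain solution (final 0.05% Triton X-100, 1% formaldehyde, 1 ug/ml Hoechst) was added. Nuclei counted on 4× images gave relative viability as treated counts over vehicle counts, reported as the median of duplicate plates.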
# NCI-H838 = test system: NCI-H838
# Procedure, shortened: as §1
# LK-2 = test system: LK-2
# Procedure, shortened: as §1
# NCI-H1355 = test system: NCI-H1355
# Procedure, shortened: as §1
# SW 1573 = test system: SW 1573
# Procedure, shortened: as §1
# UMC-11 = test system: UMC-11
# Procedure, shortened: as §1
# NCI-H1734 = test system: NCI-H1734
# Procedure, shortened: as §1
# NCI-H2228 = test system: NCI-H2228
# Procedure, shortened: as §1
# NCI-H520 = test system: NCI-H520
# Procedure, shortened: as §1
# NCI-H2347 = test system: NCI-H2347
# Procedure, shortened: as §1
# 201T = test system: 201T
# Procedure, shortened: as §1
# NCI-H2009 = test system: NCI-H2009
# Procedure, shortened: as §1
# LOU-NH91 = test system: LOU-NH91
# Procedure, shortened: as §1
# HCC-44 = test system: HCC-44
# Procedure, shortened: as §1
# NCI-H1650 = test system: NCI-H1650
# Procedure, shortened: as §1
# NCI-H1755 = test system: NCI-H1755
# Procedure, shortened: as §1
# NCI-H358 = test system: NCI-H358
# Procedure, shortened: as §1
# HCC-366 = test system: HCC-366
# Procedure, shortened: as §1
# HCC-78 = test system: HCC-78
# Procedure, shortened: as §1
# ABC-1 = test system: ABC-1
# Procedure, shortened: as §1
# NCI-H2405 = test system: NCI-H2405
# Procedure, shortened: as §1
# BEN = test system: BEN
# Procedure, shortened: as §1
# NCI-H1666 = test system: NCI-H1666
# Procedure, shortened: as §1
compound,measurement,setting,value
O=c1[nH]c2ccccc2n1C1CCN(CCCC(c2ccc(F)cc2)c2ccc(F)cc2)CC1 [Pimozide] + CS(=O)(=O)N1CCN(Cc2cc3nc(-c4cccc5[nH]ncc45)nc(N4CCOCC4)c3s2)CC1 [Pictilisib] (partner 1 µM),relative viability,NCI-H727; first compound 0.08 µM,0.367
same,relative viability,NCI-H727; first compound 0.253 µM,0.357
same,relative viability,NCI-H727; first compound 0.8 µM,0.389
same,relative viability,NCI-H727; first compound 2.53 µM,0.308
same,relative viability,NCI-H727; first compound 8 µM,0.434
same,relative viability,NCI-H838; first compound 0.08 µM,0.484
same,relative viability,NCI-H838; first compound 0.253 µM,0.454
same,relative viability,NCI-H838; first compound 0.8 µM,0.444
same,relative viability,NCI-H838; first compound 2.53 µM,0.447
same,relative viability,NCI-H838; first compound 8 µM,0.427
same,relative viability,LK-2; first compound 0.08 µM,0.556
same,relative viability,LK-2; first compound 0.253 µM,0.605
same,relative viability,LK-2; first compound 0.8 µM,0.454
same,relative viability,LK-2; first compound 2.53 µM,0.547
same,relative viability,LK-2; first compound 8 µM,0.553
same,relative viability,NCI-H1355; first compound 0.08 µM,0.371
same,relative viability,NCI-H1355; first compound 0.253 µM,0.417
same,relative viability,NCI-H1355; first compound 0.8 µM,0.436
same,relative viability,NCI-H1355; first compound 2.53 µM,0.466
same,relative viability,NCI-H1355; first compound 8 µM,0.357
same,relative viability,SW 1573; first compound 0.08 µM,0.534
same,relative viability,SW 1573; first compound 0.253 µM,0.462
same,relative viability,SW 1573; first compound 0.8 µM,0.47
same,relative viability,SW 1573; first compound 2.53 µM,0.449
same,relative viability,SW 1573; first compound 8 µM,0.416
same,relative viability,UMC-11; first compound 0.08 µM,0.79
same,relative viability,UMC-11; first compound 0.253 µM,0.804
same,relative viability,UMC-11; first compound 0.8 µM,0.746
same,relative viability,UMC-11; first compound 2.53 µM,0.699
same,relative viability,UMC-11; first compound 8 µM,0.906
same,relative viability,NCI-H1734; first compound 0.08 µM,0.45
same,relative viability,NCI-H1734; first compound 0.253 µM,0.444
same,relative viability,NCI-H1734; first compound 0.8 µM,0.489
same,relative viability,NCI-H1734; first compound 2.53 µM,0.411
same,relative viability,NCI-H1734; first compound 8 µM,0.46
same,relative viability,NCI-H2228; first compound 0.08 µM,0.378
same,relative viability,NCI-H2228; first compound 0.253 µM,0.386
same,relative viability,NCI-H2228; first compound 0.8 µM,0.312
same,relative viability,NCI-H2228; first compound 2.53 µM,0.34
same,relative viability,NCI-H2228; first compound 8 µM,0.29
same,relative viability,NCI-H520; first compound 0.08 µM,0.294
same,relative viability,NCI-H520; first compound 0.253 µM,0.337
same,relative viability,NCI-H520; first compound 0.8 µM,0.248
same,relative viability,NCI-H520; first compound 2.53 µM,0.256
same,relative viability,NCI-H520; first compound 8 µM,0.259
same,relative viability,NCI-H2347; first compound 0.08 µM,0.611
same,relative viability,NCI-H2347; first compound 0.253 µM,0.599
same,relative viability,NCI-H2347; first compound 0.8 µM,0.601
same,relative viability,NCI-H2347; first compound 2.53 µM,0.605
same,relative viability,NCI-H2347; first compound 8 µM,0.605
same,relative viability,201T; first compound 0.08 µM,0.69
same,relative viability,201T; first compound 0.253 µM,0.613
same,relative viability,201T; first compound 0.8 µM,0.6
same,relative viability,201T; first compound 2.53 µM,0.669
same,relative viability,201T; first compound 8 µM,0.599
same,relative viability,NCI-H2009; first compound 0.08 µM,0.853
same,relative viability,NCI-H2009; first compound 0.253 µM,0.923
same,relative viability,NCI-H2009; first compound 0.8 µM,0.786
same,relative viability,NCI-H2009; first compound 2.53 µM,0.769
same,relative viability,NCI-H2009; first compound 8 µM,0.575
same,relative viability,LOU-NH91; first compound 0.08 µM,0.476
same,relative viability,LOU-NH91; first compound 0.253 µM,0.489
same,relative viability,LOU-NH91; first compound 0.8 µM,0.521
same,relative viability,LOU-NH91; first compound 2.53 µM,0.546
same,relative viability,LOU-NH91; first compound 8 µM,0.509
same,relative viability,HCC-44; first compound 0.08 µM,0.58
same,relative viability,HCC-44; first compound 0.253 µM,0.695
same,relative viability,HCC-44; first compound 0.8 µM,0.565
same,relative viability,HCC-44; first compound 2.53 µM,0.576
same,relative viability,HCC-44; first compound 8 µM,0.558
same,relative viability,NCI-H1650; first compound 0.08 µM,0.589
same,relative viability,NCI-H1650; first compound 0.253 µM,0.489
same,relative viability,NCI-H1650; first compound 0.8 µM,0.461
same,relative viability,NCI-H1650; first compound 2.53 µM,0.547
same,relative viability,NCI-H1650; first compound 8 µM,0.182
same,relative viability,NCI-H1755; first compound 0.08 µM,0.438
same,relative viability,NCI-H1755; first compound 0.253 µM,0.441
same,relative viability,NCI-H1755; first compound 0.8 µM,0.418
same,relative viability,NCI-H1755; first compound 2.53 µM,0.368
same,relative viability,NCI-H1755; first compound 8 µM,0.307
same,relative viability,NCI-H358; first compound 0.08 µM,0.292
same,relative viability,NCI-H358; first compound 0.253 µM,0.324
same,relative viability,NCI-H358; first compound 0.8 µM,0.384
same,relative viability,NCI-H358; first compound 2.53 µM,0.356
same,relative viability,NCI-H358; first compound 8 µM,0.396
same,relative viability,HCC-366; first compound 0.08 µM,0.164
same,relative viability,HCC-366; first compound 0.253 µM,0.154
same,relative viability,HCC-366; first compound 0.8 µM,0.165
same,relative viability,HCC-366; first compound 2.53 µM,0.0834
same,relative viability,HCC-366; first compound 8 µM,0.118
same,relative viability,HCC-78; first compound 0.08 µM,0.214
same,relative viability,HCC-78; first compound 0.253 µM,0.244
same,relative viability,HCC-78; first compound 0.8 µM,0.187
same,relative viability,HCC-78; first compound 2.53 µM,0.19
same,relative viability,HCC-78; first compound 8 µM,0.202
same,relative viability,ABC-1; first compound 0.08 µM,0.596
same,relative viability,ABC-1; first compound 0.253 µM,0.84
same,relative viability,ABC-1; first compound 0.8 µM,0.743
same,relative viability,ABC-1; first compound 2.53 µM,0.589
same,relative viability,ABC-1; first compound 8 µM,0.474
same,relative viability,NCI-H2405; first compound 0.08 µM,0.482
same,relative viability,NCI-H2405; first compound 0.253 µM,0.371
same,relative viability,NCI-H2405; first compound 0.8 µM,0.422
same,relative viability,NCI-H2405; first compound 2.53 µM,0.42
same,relative viability,NCI-H2405; first compound 8 µM,0.349
same,relative viability,BEN; first compound 0.08 µM,0.627
same,relative viability,BEN; first compound 0.253 µM,0.565
same,relative viability,BEN; first compound 0.8 µM,0.583
same,relative viability,BEN; first compound 2.53 µM,0.542
same,relative viability,BEN; first compound 8 µM,0.595
same,relative viability,NCI-H1666; first compound 0.08 µM,0.323
same,relative viability,NCI-H1666; first compound 0.253 µM,0.512
same,relative viability,NCI-H1666; first compound 0.8 µM,0.439
same,relative viability,NCI-H1666; first compound 2.53 µM,0.385
same,relative viability,NCI-H1666; first compound 8 µM,0.465
